Consider 2 molecules from US20180064679A1, “METHOD FOR TREATING CANCER BASED ON LEVEL OF GLUCOCORTICOID RECEPTOR” (Abraxis BioScience, LLC, priority 2015, published 2018).

One assay relates to MDA-MB-231 cells. Nature of the assay: caspase-3/7 activation (apoptosis) assay in MDA-MB-231 cells. The format is cell-based. As to conditions: PTX 0-3000 nM alone, roughly 34.5 hours. The protocol: MDA-MB-231 cells were cultured using Eagle's minimum essential medium (EMEM) with 10% fetal bovine serum (FBS). FBS was charcoal-filtered to remove endogenous steroids. Cells were plated at 5000 cell per well and treated 24 hours after plating. PTX doses of 3000, 1000, 333.3, 111.1, 37.0, 12.3, 4.1, 1.4, 0.5, and 0 nM were evaluated. MDA-MB-231 cell samples treated with DEX received 100 nM DEX 30 minutes prior to administration of PTX or a vehicle control. The vehicle control for DEX was 0.1% ethanol, final concentration after addition. The vehicle control for PTX was 0.1% DMSO, final concentration after addition. Additionally, during PTX and/or DEX drug dosing, a caspase-3/7 activation reagent was added to the cell samples, for example, Caspase-3/7 reagent (Essen BioScience, Ann Arbor, Mich.; Catalog No. 4440). Specifically, the CELLPLAYER™ Kinetic Caspase-3/7 activation assay reagents (Essen BioScience, Ann Arbor, Mich.) were used to detect caspase-3/7 activation.
At time points following PTX administration (e.g., roughly every 3 hours) the activation of the caspase-3/7 reagent was measured with, for example, an INCUCYTE™ FLR (Essen BioScience, Ann Arbor, Mich.). Activation of caspase-3/7 is indicative of an apoptotic and/or an apoptosing cell. All concentrations of PTX, both with and without DEX, were evaluated in triplicate.

A further assay relates to H1755 cells. Description: caspase-3/7 activation (apoptosis) assay in H1755 cells. The format is cell-based, human. How it is done: H1755 cells were cultured using EMEM with 10% FBS. FBS was charcoal-filtered to remove endogenous steroids. Cells were plated at 5000 cell per well and treated 24 hours after plating. H1755 cell samples treated with DEX received DEX 30 minutes prior to administration of PTX or a vehicle control. Vehicle controls are the same as those discussed in Example 1. Additionally, during PTX and/or DEX drug dosing, a caspase-3/7 activation reagent was added to the cell samples, for example, Caspase-3/7 reagent (Essen BioScience, Ann Arbor, Mich; Catalog No. 4440). Specifically, the CELLPLAYER™ Kinetic Caspase-3/7 activation assay reagents (Essen BioScience, Ann Arbor, Mich.) were used to detect caspase-3/7 activation.
At time points following PTX administration the activation of the caspase-3/7 reagent was measured with, for example, an INCUCYTE™ FLR (Essen BioScience, Ann Arbor, Mich.). […] Apoptotic or apoptosing H1755 cells (caspase-3/7 positive cells) are indicated in white, as measured by caspase-3/7 activation (FIGS. 3A-3D).
To determine the EC50 of DEX in H1755 cells, a series of PTX concentrations were evaluated for caspase-3/7 activation across a series of DEX concentrations. […]
H1755 cell samples were treated with 0, 0.43, 1.3, 4.12, 12.3, 37, 111, 333, 1000, or 3000 nM PTX. […] At time points following drug administration, caspase-3/7 activation was measured as discussed in Example 1.

Assay [1] relates to phosphorylated c-Jun (Ser 73). Nature of the assay: Western blot of phosphorylated c-Jun (Ser 73) in H1755 cells. As to conditions: 100 nM PTX, 4 hours. The format is cell-based, human. The protocol:
(§1) H1755 and H522 cells were cultured using RPMI media that was charcoal-filtered media to remove steroids. Cell samples received one of the following treatments: vehicle control (0.1% EtOH for DEX vehicle control or 0.1% DMSO for PTX vehicle control), 100 nM DEX, 100 nM PTX, or 100 nM DEX and 100 nM PTX. At 1 hour, 4 hours, or 24 hours after drug administration, cell samples were harvested and mRNA levels of MKP-1 and SGK1 were measured via quantitative real-time polymerase chain reaction (qRT-PGR). […]
(§2) In addition to measuring MKP-1 and SGK1 mRNA expression, a series of proteins (and their phosphorylation status) involved in stress pathway signaling were evaluated via Western blot to measure changes following treatment with DEX, PTX, or DEX and PTX. JNK1 was measured after 2 hours of treatment, P c-Jun, c-Jun, pMPK1, and SGK1 were measured after 4 hours of treatment, and other measurements were after 24 hours of treatment. […]

In assay [2] the test system is phosphorylated c-Jun (Ser 73). Description: Western blot of phosphorylated c-Jun (Ser 73) in H522 cells. The conditions noted are these: 100 nM PTX, 4 hours. The format is cell-based. The protocol: as §1, §2
The next assay relates to MCL1. Description: Western blot of MCL1 and phosphorylated MCL1. The class given is cell-based. The conditions noted are these: 100 nM PTX, 24 hours, H1755 and H522 cells. The protocol: (§3) H1755 and H522 cells were cultured using RPMI media that was charcoal-filtered media to remove steroids. Cell samples received one of the following treatments: vehicle control (0.1% EtOH for DEX vehicle control or 0.1% DMSO for PTX vehicle control), 100 nM DEX, 100 nM PTX, or 100 nM DEX and 100 nM PTX. At 1 hour, 4 hours, or 24 hours after drug administration, cell samples were harvested and mRNA levels of MKP-1 and SGK1 were measured via quantitative real-time polymerase chain reaction (qRT-PGR). Western blot analysis of GR, phosphorylated JNK1 (P-JNK1; phosphorylation at Thr 183 and Tyr 185), JNK1, phosphorylated c-Jun (P c-Jun; phosphorylation at Ser 73 or Ser 63), c-Jun, phosphorylated MKP1 (pMKP1; phosphorylated at Ser 359), SG1, phosphorylated MCL-1 (pMCL-1; phosphorylated at Ser 64), MCL-1, phosphorylated BCL2 (pBC1,2; phosphorylated at Ser 70), BCL2, BCLXL, cleaved caspase-3, and GAPDH (for purposes of normalization) was performed following treatment with either a vehicle control (0.1% EtOH for DEX vehicle control or 0.1% DMSO for PTX vehicle control), 100 nM DEX, 100 nM PTX, or 100 nM DEX and 100 nM PTX.
(§4) Furthermore, pro-survival markers, MCL1, BCL2, and BCLXL, were measured by Western blot to evaluate changes following treatment with DEX, PTX, or DEX and PTX. MCL1, BCL2, and BCLXL inhibit apoptosis by blocking activation of caspases, such as, caspase-3. […]

The test system of the next assay is phosphorylated BCL2. Nature of the assay: Western blot of phosphorylated BCL2 in H1755 cells. The format is cell-based, human. The conditions noted are these: 100 nM PTX, 24 hours. The protocol: as §3, §4
Assay [3] has as its system BCLXL. Description: Western blot of BCLXL in H1755 cells. As to conditions: 100 nM PTX, 24 hours. The class given is cell-based, human. The protocol: as §3, §4
The subject of assay [4] is BCLXL. Nature of the assay: Western blot of BCLXL in H522 cells. The class given is cell-based. The conditions noted are these: 100 nM PTX, 24 hours. The protocol:
as §3, §4

The subject of assay [5] is cleaved caspase-3. Nature of the assay: Western blot of cleaved caspase-3 in H1755 cells. The format is cell-based, human. The conditions noted are these: 100 nM PTX, 24 hours. How it is done:
as §3, §4

Assay [6] concerns cleaved caspase-3. Description: Western blot of cleaved caspase-3 in H522 cells. The class given is cell-based. The conditions noted are these: 100 nM PTX, 24 hours. The protocol: as §3, §4
The subject of assay [7] is ERK, phosphorylated ERK, p38, and phosphorylated p38. Nature of the assay: Western blot of MAPK pathway proteins in H1755 and H522 cells. The format is cell-based. As to conditions: 100 nM DEX and/or 100 nM PTX, 4 hours. How it is done:
H1755 and H522 cells were analyzed by Western blot at 4 hours following administration of a vehicle control (0.1% EtOH for DEX vehicle control or 0.1% DMSO for PTX vehicle control), 100 nM DEX, 100 nM PTX, or 100 nM DEX and 100 nM PTX.

The subject of another assay is H522 cell line. Nature of the assay: caspase-3/7 activation assay in H522 cell line. The class given is cell-based. As to conditions: 100 nM DEX, 100 nM PTX, H522 (minimal level of GR).
The test system of a further assay is H23 cells. Nature of the assay: caspase-3/7 activation assay in H23 cells. The class given is cell-based. As to conditions: H23 cells (low level of GR expression), data not shown.
The next assay relates to MKP-1. Description: qRT-PCR of MKP-1 mRNA in H1755 cells. As to conditions: 100 nM DEX, H1755 cells, 1, 4 or 24 hours. The class given is cell-based, human. The protocol:
as §3

The test system of another assay is SGK1. Nature of the assay: qRT-PCR of SGK1 mRNA in H1755 cells. The format is cell-based, human. As to conditions: 100 nM DEX, H1755 cells, 1, 4 or 24 hours. The protocol:
as §3

The next assay deals with MAP TAU. Nature of the assay: Western blot of MAP TAU in H1755 cells. The class given is cell-based, human. How it is done: H1755 and H522 cells were analyzed by Western blot at 4 and 24 hours following administration of a vehicle control (0.1% EtOH for DEX vehicle control or 0.1% DMSO for PTX vehicle control), 100 nM DEX, 100 nM PTX, or 100 nM DEX and 100 nM PTX.

Consider `CC(=O)O[C@H]1C(=O)[C@@]2(C)[C@H]([C@H](OC(=O)c3ccccc3)[C@]3(O)C[C@H](OC(=O)[C@H](O)[C@@H](NC(=O)c4ccccc4)c4ccccc4)C(C)=C1C3(C)C)[C@]1(OC(C)=O)CO[C@@H]1C[C@@H]2O` [PTX, paclitaxel], for which the “level of apoptosis (as measured by level of caspase-3/7 activation)” value in the assay with MDA-MB-231 cells is reported as “higher concentrations of PTX induced increased levels of apoptosis”. In addition, the “level of apoptosis (caspase-3/7 activation), PTX alone” value in the assay on H1755 cells (111 nM PTX) is “marked increase in apoptosis”. The “phosphorylation of c-Jun on Ser 73 following PTX treatment” value in assay [1] and in assay [2] was “increased” each time. In the assay on MCL1, the “phosphorylation of MCL1” value was “up-regulated”. The “total expression of MCL1” value in the assay with MCL1 is on record as “decreasing”. Further, the “phosphorylation of BCL2” value with phosphorylated BCL2 was “up-regulated”. Also, the BCLXL expression result was “down-regulated” in the assay with BCLXL [3] and “not H522 cells” with BCLXL [4]. Besides, the “expression of cleaved caspase-3” value in the assay on cleaved caspase-3 [5] and with cleaved caspase-3 [6] was “increases” throughout. Also, the “change of MAPK pathway proteins and MAPK signaling mechanisms” value in assay [7] is recorded as “minimally changed”.

In the assay on H1755 cells (Homo sapiens, NCI-H1755, caspase-3/7 activation, series of PTX and DEX concentrations), `C[C@@H]1C[C@H]2[C@@H]3CCC4=CC(=O)C=C[C@]4(C)[C@@]3(F)[C@@H](O)C[C@]2(C)[C@@]1(O)C(=O)CO` [DEX, dexamethasone] displayed an EC50 of 4 nM. For the same molecule, the “DEX antagonism of PTX-induced apoptosis” value in the assay with H522 cell line is “no effect”. The “DEX effect on PTX-induced apoptosis” value with H23 cells is “no effect”. Further, the “up-regulation of MKP-1 mRNA by DEX, maximum” value in the assay with MKP-1 was found to be 8 fold. For the same molecule, in the assay with SGK1, the “up-regulation of SGK1 mRNA by DEX, maximum” value was 2.5 fold. The “increase of MAP TAU in cells treated with DEX and PTX” value in the assay with MAP TAU (100 nM DEX and 100 nM PTX, 24 hours) was found to be 2 fold. In addition, the “DEX-induced upregulation of MAP TAU” value in the assay with MAP TAU (100 nM DEX, 24 hours after drug administration) is 5 fold.
